Reference: patent US11530180B2, “Alpha-5 beta-1 inhibitors” (The Regents of the University of California, priority 2019, dated 2022)

What follows are molecules tested against alpha-5-beta-1 integrin (Homo sapiens (Human), UniProt P05556+P08648) (assay: alpha-5-beta-1 integrin cell adhesion assay (SW480 cells on human plasma fibronectin)). Conditions: alpha-5-beta-1 integrin cell adhesion assay following Example 1; Table 2.
Assay type: cell-based
Experimental: Cell Adhesion Assay. Evaluation of cell attachment to extracellular matrix proteins was performed as previously described by Yokosaki et al, J. Biol. Chem., 271: (39): 24144-24150 (1996). Briefly, wells of non-tissue culture-treated polystyrene 96-well flat-bottom microtiter plates (Linbro/Titertek, Flow Laboratories, McLean, Va.) were coated by incubation with 100 μl of each substrate in PBS at 37° C. for 1 hour. 96-well flat-bottomed tissue culture plates were coated with human plasma fibronectin for 1 hour at 37° C. After incubation, wells were washed with PBS, then blocked with 1% bovine serum albumin (BSA) for one hour. Control wells were filled with 1% BSA. SW480 cells were detached using 10 mM EDTA and resuspended in serum-free DMEM. For blocking experiments, cells were incubated with 10 μg/ml of the antibody for 15 minutes at 4° C. before plating. The plates were centrifuged at 10 g for 5 minutes before incubation for 1 hour at 37° C. in humidified 5% CO2. Nonadherent cells were removed by centrifugation (top side down) at 10 g for 5 minutes. Attached cells were stained with 0.5% crystal violet, and the wells were washed with PBS. The relative number of cells in each well was evaluated after solubilization in 40 μl of 2% Triton X-100 by measuring absorbance at 595 nm in a microplate reader. All determinations were carried out in triplicate.
Table 2 provides the IC50 (nM) results of an alpha-5-beta-1 integrin cell adhesion assay for the compounds shown. The assay was performed following the procedures set forth in Example 1 and as described by Yokosaki et al, J. Biol. Chem., 271: (39): 24144-24150 (1996).

alpha-5-beta-1 integrin, sequence (P08648 42-894): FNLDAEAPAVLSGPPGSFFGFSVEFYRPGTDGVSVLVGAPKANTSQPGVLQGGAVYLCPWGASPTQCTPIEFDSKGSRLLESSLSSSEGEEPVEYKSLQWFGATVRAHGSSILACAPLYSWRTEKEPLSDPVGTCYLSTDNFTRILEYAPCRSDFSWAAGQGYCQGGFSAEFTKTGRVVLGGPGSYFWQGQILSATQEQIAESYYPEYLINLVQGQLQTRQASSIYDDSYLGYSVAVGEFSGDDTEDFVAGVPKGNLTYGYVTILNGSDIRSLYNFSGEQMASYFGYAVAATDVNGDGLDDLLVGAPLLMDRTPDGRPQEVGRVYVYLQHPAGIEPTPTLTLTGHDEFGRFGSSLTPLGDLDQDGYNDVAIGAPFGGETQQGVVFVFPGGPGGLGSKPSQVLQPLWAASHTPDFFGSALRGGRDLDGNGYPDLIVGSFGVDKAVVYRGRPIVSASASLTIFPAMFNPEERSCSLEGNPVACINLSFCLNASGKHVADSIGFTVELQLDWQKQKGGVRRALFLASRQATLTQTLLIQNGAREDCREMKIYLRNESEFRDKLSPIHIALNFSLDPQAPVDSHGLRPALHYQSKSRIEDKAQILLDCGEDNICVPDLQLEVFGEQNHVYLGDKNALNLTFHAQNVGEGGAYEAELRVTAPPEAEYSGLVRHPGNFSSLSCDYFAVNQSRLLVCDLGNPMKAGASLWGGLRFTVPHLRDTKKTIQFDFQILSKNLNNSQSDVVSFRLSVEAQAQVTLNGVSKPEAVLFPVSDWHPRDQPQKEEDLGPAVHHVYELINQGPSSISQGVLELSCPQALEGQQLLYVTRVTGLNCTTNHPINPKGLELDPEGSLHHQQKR
alpha-5-beta-1 integrin, sequence (P08648 895-1049 partner): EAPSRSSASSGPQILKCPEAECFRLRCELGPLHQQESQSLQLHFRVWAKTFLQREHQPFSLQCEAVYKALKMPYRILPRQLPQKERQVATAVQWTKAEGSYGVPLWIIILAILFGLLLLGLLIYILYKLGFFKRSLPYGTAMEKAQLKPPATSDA
alpha-5-beta-1 integrin, sequence (P05556 21-798): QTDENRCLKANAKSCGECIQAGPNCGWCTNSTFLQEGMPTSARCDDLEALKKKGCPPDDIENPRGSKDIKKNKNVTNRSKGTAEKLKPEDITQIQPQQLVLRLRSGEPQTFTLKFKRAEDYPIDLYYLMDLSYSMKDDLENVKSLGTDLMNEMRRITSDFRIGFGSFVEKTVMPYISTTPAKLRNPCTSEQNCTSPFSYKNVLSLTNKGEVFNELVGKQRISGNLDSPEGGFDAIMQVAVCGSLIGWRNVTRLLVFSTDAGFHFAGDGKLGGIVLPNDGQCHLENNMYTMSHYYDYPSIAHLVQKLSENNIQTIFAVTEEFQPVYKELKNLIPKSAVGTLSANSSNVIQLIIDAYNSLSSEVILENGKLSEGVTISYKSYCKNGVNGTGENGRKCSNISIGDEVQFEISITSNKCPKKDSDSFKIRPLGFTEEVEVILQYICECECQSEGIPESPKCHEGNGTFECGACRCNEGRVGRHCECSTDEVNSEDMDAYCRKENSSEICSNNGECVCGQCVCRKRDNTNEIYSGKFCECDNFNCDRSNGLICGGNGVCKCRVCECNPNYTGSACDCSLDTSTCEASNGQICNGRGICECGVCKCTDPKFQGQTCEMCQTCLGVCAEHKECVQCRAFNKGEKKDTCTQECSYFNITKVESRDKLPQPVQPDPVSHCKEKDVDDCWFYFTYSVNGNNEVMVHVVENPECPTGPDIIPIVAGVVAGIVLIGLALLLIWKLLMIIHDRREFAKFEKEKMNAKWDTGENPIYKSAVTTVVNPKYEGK

First: CNc1cccc(CCC(=O)NCC(=O)NC[C@H](NC(=O)c2c(Cl)cc(-c3ccccc3)cc2Cl)C(=O)O)n1 [SU15210-0152-01, (S)-2-(3,5-dichlorobiphenyl-4-ylcarboxamido)-3-(2-(3-(6-(methylamino)pyridin-2-yl)propanamido)acetamido)propanoic acid]
Second: O=C(CCc1ccc2c(n1)NCCC2)NCC(=O)NC[C@H](NC(=O)c1c(Cl)cc(-c2ccccc2)cc1Cl)C(=O)O [SU15210-0151-01, (S)-2-(3,5-dichloro-[1,1′-biphenyl]-4-carboxamido)-3-(2-(3-(5,6,7,8-tetrahydro-1,8-naphthyridin-2-yl)propanamido)acetamido)propanoic acid]
The IC50 of the first is higher: 1000 to 10000 nM for the first, 101 to 1000 nM for the second. The second is the more potent here.

Compared with C[C@@H](NC(=O)c1cccc(NC2=NCC(F)CN2)c1)C(=O)NC[C@H](NC(=O)c1c(Cl)cc(-c2ccccc2)cc1Cl)C(=O)O (stereo partly drawn) [SU15210-0254, (2S)-2-[(2,6-dichloro-4-phenyl-benzoyl)amino]-3-[[(2R)-2-[[3-[(5-fluoro-1,4,5,6-tetrahydropyrimidin-2-yl)amino]benzoyl]amino]propanoyl]amino]propanoic acid], O=C(CNC(=O)c1cccc(NC2=NCC(F)(F)CN2)c1)NC[C@H](NC(=O)c1c(Cl)cc(-c2ccccc2)cc1Cl)C(=O)O [SU15210-0200, (S)-2-(3,5-dichlorobiphenyl-4-ylcarboxamido)-3-(2-(3-(5,5-difluoro-1,4,5,6-tetrahydropyrimidin-2-ylamino)benzamido)acetamido)propanoic acid] is lower in IC50: 101 to 1000 nM for the first, < 100 nM for the second.

O=C(CNC(=O)c1cccc(NC2=NCC(F)(F)CN2)c1)NC[C@H](NC(=O)c1c(Cl)cc(N2CCOCC2)cc1Cl)C(=O)O [SU15210-0271-01, (S)-2-(2,6-dichloro-4-morpholinobenzamido)-3-(2-(3-(5,5-difluoro-1,4,5,6-tetrahydropyrimidin-2-ylamino)benzamido)acetamido)propanoic acid] and O=C(CNC(=O)c1cccc(NC2=NCC(F)CN2)c1)NC[C@H](NC(=O)c1c(Cl)cc(N2CCOCC2)cc1Cl)C(=O)O (stereo partly drawn) [SU15210-0248-01, (2 S)-2-(2,6-dichloro-4-morpholinobenzamido)-3-(2-(3-(5-fluoro-1,4,5,6-tetrahydropyrimidin-2-ylamino)benzamido)acetamido)propanoic acid] cannot be ordered by IC50: < 100 nM for the first, < 100 nM for the second.

First: C/N=C(\NC)Nc1cccc(C(=O)NCC(=O)NC[C@H](NC(=O)c2c(Cl)cc(-c3ccccc3)cc2Cl)C(=O)O)c1 [SU15210-0193-01, (S,E)-2-(3,5-dichlorobiphenyl-4-ylcarboxamido)-3-(2-(3-(2,3-dimethylguanidino)benzamido)acetamido)propanoic acid]
Second: O=C(CNC(=O)c1cccc(NC2=NCCCN2)c1)NC[C@H](NC(=O)c1c(Cl)cc(-c2ccccc2)cc1Cl)C(=O)O [SU15210-0147-01, (S)-2-(3,5-dichlorobiphenyl-4-ylcarboxamido)-3-(2-(3-(1,4,5,6-tetrahydropyrimidin-2-ylamino)benzamido)acetamido)propanoic acid]
The IC50 of the first is higher: 101 to 1000 nM for the first, < 100 nM for the second. The second is the more potent here.

O=C(CNC(=O)c1cccc(NC2=NCC(F)CN2)c1)NC[C@H](NC(=O)c1c(Cl)cc(N2CCS(=O)(=O)CC2)cc1Cl)C(=O)O (stereo partly drawn) [SU15210-0253-01] and O=C(CNC(=O)c1cccc(NC2=NCC(F)CN2)c1)NC[C@H](NC(=O)c1c(Cl)cc(-c2ccc3cn[nH]c3c2)cc1Cl)C(=O)O (stereo partly drawn) [SU15210-0241-01, (2S)-2-(2,6-dichloro-4-(1H-indazol-6-yl)benzamido)-3-(2-(3-(5-fluoro-1,4,5,6-tetrahydropyrimidin-2-ylamino)benzamido)acetamido)propanoic acid] cannot be ordered by IC50: < 100 nM for the first, < 100 nM for the second.

First: O=C(CNC(=O)c1cccc(NC2=NCCCS2)c1)NC[C@H](NC(=O)c1c(Cl)cc(-c2ccccc2)cc1Cl)C(=O)O [SU15210-0230-01]
Second: CN(CC(=O)NC[C@H](NC(=O)c1c(Cl)cc(-c2ccccc2)cc1Cl)C(=O)O)C(=O)c1cccc(NC(=N)N)c1 [SU15210-0202-01, (S)-2-(3,5-dichlorobiphenyl-4-ylcarboxamido)-3-(2-(3 guanidino-N-methylbenzamido)acetamido)propanoic acid]
The IC50 of the first is lower: < 100 nM for the first, 101 to 1000 nM for the second.

CS(=O)(=O)c1ccc(-c2cc(Cl)c(C(=O)N[C@@H](CNC(=O)CNC(=O)c3cccc(N=C(N)N)c3)C(=O)O)c(Cl)c2)cc1 [SU15210-0110-01, (S)-2-(3,5-dichloro-4′-(methylsulfonyl)biphenyl-4-ylcarboxamido)-3-(2-(3 guanidinobenzamido)acetamido)propanoic acid] and O=C(CNC(=O)c1cccc(NC2=NCC(F)(F)CN2)c1)NC[C@H](NC(=O)c1c(Cl)cc(-c2ccc3cn[nH]c3c2)cc1Cl)C(=O)O [SU15210-0272-01, (S)-2-(2,6-dichloro-4-(1H-indazol-6-yl)benzamido)-3-(2-(3-(5,5-difluoro-1,4,5,6-tetrahydropyrimidin-2-ylamino)benzamido)acetamido)propanoic acid] cannot be ordered by IC50: < 100 nM for the first, < 100 nM for the second.

For COC(=O)[C@H](CNC(=O)CNC(=O)c1cc(C#N)cc(N/C(=N/C(=O)OC(C)(C)C)NC(=O)OC(C)(C)C)c1)NC(=O)c1c(Cl)cc(-c2ccccc2)cc1Cl [SU15210-0206-01], the IC50 was < 100 nM.

Same assay, conditions: cell adhesion assay, SW480 cells, fibronectin-coated plates; Table 1

N=C(N)Nc1ccc2ncn(CCC(=O)NC[C@H](NC(=O)c3c(Cl)cccc3Cl)C(=O)O)c2c1 and N=C(N)Nc1cccc(C(=O)NCC(=O)NC[C@H](NC(=O)c2c(Cl)cccc2Cl)C(=O)O)c1 cannot be ordered by IC50: < 10000 nM for the first, < 100 nM for the second.

COc1ccc(Nc2cccc(C(=O)NCC(=O)NC[C@H](NC(=O)c3c(Cl)cccc3Cl)C(=O)O)c2)nc1 and Cc1ccnc(Nc2cccc(C(=O)NCC(=O)NC[C@H](NC(=O)c3c(Cl)cccc3Cl)C(=O)O)c2)c1 cannot be ordered by IC50: < 50000 nM for the first, < 10000 nM for the second.

N#C/N=C(\N)Nc1cccc(C(=O)NCC(=O)NC[C@H](NC(=O)c2c(Cl)cccc2Cl)C(=O)O)c1 [drawing 110] and N#C/N=C(\N)Nc1cccc(C(=O)NCC(=O)NC[C@@H](NC(=O)c2c(Cl)cccc2Cl)C(=O)O)c1 cannot be ordered by IC50: < 1000 nM for the first, < 10000 nM for the second.

N=C(N)Nc1ccc2c(c1)C(NCC(=O)NC[C@H](NC(=O)c1c(Cl)cccc1Cl)C(=O)O)CCO2 (stereo partly drawn) and Cc1cccc(Cl)c1C(=O)N[C@@H](CNC(=O)CNC(=O)c1cccc(NC(=N)N)c1)C(=O)O cannot be ordered by IC50: < 1000 nM for the first, < 1000 nM for the second.

O=C(CNC(=O)c1cccc(NC2=NCCCN2)c1)NC[C@H](NC(=O)c1c(Cl)cccc1Cl)C(=O)O and N#C/N=C(\N)Nc1cccc(C(=O)NCC(=O)NC[C@H](NC(=O)c2c(Cl)cccc2Cl)C(=O)O)c1 [drawing 107] cannot be ordered by IC50: < 100 nM for the first, < 100 nM for the second.

N=C(N)Nc1cccc(C(=O)NCC(=O)NC[C@H](NC(=O)c2c(Cl)cc(-c3ccccc3)cc2Cl)C(=O)O)c1 and N=C(N)Nc1cccc(C(=O)NCC(=O)NC[C@H](NC(=O)c2c(Cl)cc(N3CCOCC3)cc2Cl)C(=O)O)c1 cannot be ordered by IC50: < 100 nM for the first, < 100 nM for the second.
